Data published in patent US9296759B2, “Amino-oxazine and amino-dihydrothiazine compounds as beta-secretase modulators and methods of use” (AMGEN INC., priority 2011, dated 2016).
pIC50: −log10 of the molar value.

Assays:
[1] = molecular target: Cathepsin D (Homo sapiens (Human), UniProt P07339); assay: In vitro enzymatic Cat D (Cathepsin D) FRET assay; format: biochemical; settings: average IC50
Description: In Vitro Enzymatic Cat D (Cathepsin D) FRET (Fluorescence Resonance Energy Transfer) Assay
Recombinant CathepsinD was expressed in CHO cells. The assay buffer for CathepsinD is 0.05 M citrate pH 3.5, 10% DMSO final, 5 mM CHAPS. […] The assays are effectively started by the addition of different FRET substrates (20 nM for CathepsinD) and the combination is incubated for one hour. The FRET assay is terminated with by addition of Tris buffer, which raises the pH to neutrality, and the fluorescence is determined. The FRET substrate is a peptide with commercially available fluorophore and quencher, on opposite sides of the BACE cleavage site. […] Proteolytic cleavage of the FRET substrate releases quenching of fluorescence (CathepsinD excitation 500 nm and emission 580 nm).

[2] = molecular target: BACE 1 (beta secretase enzyme) (Homo sapiens (Human), UniProt P56817); assay: In vitro enzymatic BACE FRET assay; format: biochemical; settings: average IC50
Description: In Vitro Enzymatic BACE FRET (Fluorescence Resonance Energy Transfer) Assay
The assay buffer used in this screen is 0.05 M acetate, pH 4.2, 10% DMSO final, 100 uM genapol (which is a nonionic detergent, below its Critical Micelle Concentration). […] This assay is effectively started by the addition of FRET substrate (50 nM) and the combination is incubated for one hour. The FRET assay is terminated with by addition of Tris buffer, which raises the pH to neutrality, and the fluorescence is determined. The FRET substrate is a peptide with commercially available fluorophore and quencher, on opposite sides of the BACE cleavage site. Proteolytic cleavage of the FRET substrate releases quenching of fluorescence (excitation […] and […]).

[3] = system: Aβ40 in conditioned medium of cells stably expressing Amyloid Precursor Protein (APP); assay: In vitro BACE cell-based assay (HEK cell assay, Aβ40 sandwich ELISA); settings: Homo sapiens, HEK293; average IC50, Aβ40, 24 h incubation
Description: In Vitro BACE Cell-Based Assay
The cell-based assay measures inhibition or reduction of Aβ40 in conditioned medium of test compound treated cells expressing amyloid precursor protein.
Cells stably expressing Amyloid Precursor Protein (APP) were plated at a density of 40K cells/well in 96 well plates (Costar). The cells were cultivated for 24 hours at 37° C. and 5% CO2 in DMEM supplemented with 10% FBS. The test compounds were then added to cells in 10-point dose response concentrations with the starting concentration being either 100 μM or 10 μM. The compounds were diluted from stock solutions in DMSO and the final DMSO concentration of the test compounds on cells was 0.1%. After 24 h of incubation with the test compounds the supernatant conditioned media was collected and the Aβ 40 levels were determined using a sandwich ELISA. The IC50 of the compound was calculated from the percent of control or percent inhibition of Aβ 40 as a function of the concentration of the test compound.
The sandwich ELISA to detect Aβ 40 was performed in 96 well microtiter plates, which were pre-treated with goat anti-rabbit IgG (Pierce). The capture and detecting antibody pair that were used to detect Aβ 40 from cell supernatants were affinity purified pAb40 (Biosource) and biotinylated 6E10 (Signet Labs Inc.), respectively. The optimal concentration for the pAb40 antibody was 3 μg/ml in Superblock/TBS (Pierce) that was supplemented with 0.05% Tween 20 (Sigma).
Cellular supernatants were incubated with the capture antibody for 3 h at 4° C., followed by 3 wash steps in TBS-tween (0.05%). The detecting antibody incubation was for 2 h at 4° C., again followed by the wash steps as described previously. The final readout of the ELISA is Time-Resolved Fluorescence (counts per minute) using Delfia reagents Streptavidin-Europium and Enhancement solutions (Perkin Elmer) and the Victor 2 multilabel counter (Perkin Elmer).

Sequence of Cathepsin D (P07339 65-412, species assumed): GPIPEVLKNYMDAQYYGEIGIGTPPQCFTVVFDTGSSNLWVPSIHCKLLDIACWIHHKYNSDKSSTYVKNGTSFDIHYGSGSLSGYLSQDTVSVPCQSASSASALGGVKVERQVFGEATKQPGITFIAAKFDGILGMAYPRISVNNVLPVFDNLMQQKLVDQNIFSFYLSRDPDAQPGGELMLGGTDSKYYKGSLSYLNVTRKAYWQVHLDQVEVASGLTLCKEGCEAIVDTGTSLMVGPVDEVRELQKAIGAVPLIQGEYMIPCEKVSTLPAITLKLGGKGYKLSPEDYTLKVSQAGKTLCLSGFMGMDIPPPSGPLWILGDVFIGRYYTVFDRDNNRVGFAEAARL
Sequence of BACE 1 (beta secretase enzyme) (P56817 46-501): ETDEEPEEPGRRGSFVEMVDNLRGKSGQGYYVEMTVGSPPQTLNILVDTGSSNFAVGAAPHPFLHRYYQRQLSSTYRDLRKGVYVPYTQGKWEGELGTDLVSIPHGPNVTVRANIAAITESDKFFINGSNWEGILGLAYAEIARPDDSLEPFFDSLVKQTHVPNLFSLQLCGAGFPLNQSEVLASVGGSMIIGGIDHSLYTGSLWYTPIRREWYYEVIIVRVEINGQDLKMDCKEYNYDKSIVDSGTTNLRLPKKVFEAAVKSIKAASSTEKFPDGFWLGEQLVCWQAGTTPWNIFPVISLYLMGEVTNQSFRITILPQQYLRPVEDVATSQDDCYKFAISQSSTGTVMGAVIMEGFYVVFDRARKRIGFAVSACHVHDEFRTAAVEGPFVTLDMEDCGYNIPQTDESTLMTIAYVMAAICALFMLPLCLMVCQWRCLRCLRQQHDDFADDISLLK

Compound | pIC50 [1] | pIC50 [2] | pIC50 [3]
NC1=N[C@@]2(CCO1)c1cc(NC(=O)c3ccc(Cl)cn3)ccc1Oc1cnc(Cl)cc12 [Example 79, N-((5S)-2′-amino-3-chloro-5′,6′-dihydrospiro[chromeno[2,3-c]pyridine-5,4′-[1,3]oxazin]-7-yl)-5-chloro-2-pyridinecarboxamide] | 3.40 | 7.41 | 8.00
COc1cnc(C(=O)Nc2ccc3c(c2)[C@@]2(CCOC(N)=N2)c2cc(C#CC(C)(C)C)ncc2O3)cn1 [Example 86, N-((5S)-2′-amino-3-(3,3-dimethyl-1-butyn-1-yl)-5′,6′-dihydrospiro[chromeno[2,3-c]pyridine-5,4′-[1,3]oxazin]-7-yl)-5-methoxy-2-pyrazinecarboxamide] | 3.34 | 7.92 | 8.92
COc1cnc(C(=O)Nc2ccc3c(c2)[C@@]2(CCOC(N)=N2)c2cc(-c4ccnc(F)c4)ncc2O3)cn1 [Example 93, N-((5S)-2′-amino-3-(2-fluoro-4-pyridinyl)-5′,6′-dihydrospiro[chromeno[2,3-c]pyridine-5,4′-[1,3]oxazin]-7-yl)-5-methoxy-2-pyrazinecarboxamide] | 3.40 | 8.54 | 9.30
NC1=N[C@@]2(CCO1)c1cc(NC(=O)c3ccc(Cl)cn3)ccc1Oc1cnc(-c3ccnc(F)c3)cc12 [Example 94, N-((5S)-2′-amino-3-(2-fluoro-4-pyridinyl)-5′,6′-dihydrospiro[chromeno[2,3-c]pyridine-5,4′-[1,3]oxazin]-7-yl)-5-chloro-2-pyridinecarboxamide] | 3.40 | 8.80 | 9.15
N#Cc1ccc(C(=O)Nc2ccc3c(c2)[C@@]2(CCOC(N)=N2)c2cc(-c4ccnc(F)c4)nc(F)c2O3)nc1 [Example 100, N-((5S)-2′-amino-1-fluoro-3-(2-fluoro-4-pyridinyl)-5′,6′-dihydrospiro[chromeno[2,3-c]pyridine-5,4′-[1,3]oxazin]-7-yl)-5-cyano-2-pyridinecarboxamide] | 3.29 | 9.22 | 9.40
COc1cnc(C(=O)Nc2ccc3c(c2)[C@@]2(CCSC(N)=N2)c2cc(C4=CCOCC4)ncc2O3)cn1 [Example 103, N-((5S)-2′-amino-3-(3,6-dihydro-2H-pyran-4-yl)-5′,6′-dihydrospiro[chromeno[2,3-c]pyridine-5,4′-[1,3]thiazin]-7-yl)-5-methoxy-2-pyrazinecarboxamide] | 3.40 | 8.77 | 8.96
COc1cnc(C(=O)Nc2ccc3c(c2)[C@@]2(CCSC(N)=N2)c2cc(O)cc(F)c2O3)cn1 [Example 109, N-((4S)-2-amino-5′-fluoro-7′-hydroxy-5,6-dihydrospiro[1,3-thiazine-4,9′-xanthen]-2′-yl)-5-methoxy-2-pyrazinecarboxamide] | 3.40 | 7.55 | 7.19
COc1cnc(C(=O)Nc2ccc3c(c2)[C@@]2(CCSC(N)=N2)c2cc(-c4ccnc(F)c4)nc(F)c2O3)cn1 [Example 114, N-((5S)-2′-amino-1-fluoro-3-(2-fluoro-4-pyridinyl)-5′,6′-dihydrospiro[chromeno[2,3-c]pyridine-5,4′-[1,3]thiazin]-7-yl)-5-methoxy-2-pyrazinecarboxamide] | 3.40 | 8.51 | 8.42
NC1=N[C@@]2(CCS1)c1cc(NC(=O)c3ccc(F)cn3)ccc1Oc1c2cc(-c2ccnc(F)c2)nc1F [Example 118, N-((5S)-2′-amino-1-fluoro-3-(2-fluoro-4-pyridinyl)-5′,6′-dihydrospiro[chromeno[2,3-c]pyridine-5,4′-[1,3]thiazin]-7-yl)-5-fluoro-2-pyridinecarboxamide] | 3.40 | 8.82 | 8.38

Stronger by pIC50 [1], values ahead:

pIC50 [1] | pIC50 [2] | pIC50 [3] | Compound
3.59 | 8.03 | 9.40 | NC1=N[C@@]2(CCO1)c1cc(NC(=O)c3ccc(F)cn3)ccc1Oc1c2cc(C2=CCCOC2)nc1F [Example 83, N-((5S)-2′-amino-3-(5,6-dihydro-2H-pyran-3-yl)-1-fluoro-5′,6′-dihydrospiro[chromeno[2,3-c]pyridine-5,4′-[1,3]oxazin]-7-yl)-5-fluoro-2-pyridinecarboxamide]
3.65 | 7.53 | 7.08 | COc1ccc(C(=O)Nc2ccc3c(c2)[C@@]2(CCSC(N)=N2)c2cc(O)cc(F)c2O3)nc1 [Example 105, N-((4S)-2-amino-5′-fluoro-7′-hydroxy-5,6-dihydrospiro[1,3-thiazine-4,9′-xanthen]-2′-yl)-5-methoxy-2-pyridinecarboxamide]
3.49 | 8.11 | 8.06 | COc1ccc(C(=O)Nc2ccc3c(c2)[C@@]2(CCSC(N)=N2)c2cc(N4CCOCC4)cc(F)c2O3)nc1 [Example 107, N-((4S)-2-amino-5′-fluoro-7′-(4-morpholinyl)-5,6-dihydrospiro[1,3-thiazine-4,9′-xanthen]-2′-yl)-5-methoxy-2-pyridinecarboxamide]
3.64 | 7.82 | 8.11 | COc1cnc(C(=O)Nc2ccc3c(c2)[C@@]2(CCSC(N)=N2)c2cc(N4CCOCC4)cc(F)c2O3)cn1 [Example 110, N-((4S)-2-amino-5′-fluoro-7′-(4-morpholinyl)-5,6-dihydrospiro[1,3-thiazine-4,9′-xanthen]-2′-yl)-5-methoxy-2-pyrazinecarboxamide]
3.92 | 8.96 | 8.74 | COc1ccc(C(=O)Nc2ccc3c(c2)[C@@]2(CCSC(N)=N2)c2cc(-c4cncc(F)c4)nc(F)c2O3)nc1 [Example 113, N-((5S)-2′-amino-1-fluoro-3-(5-fluoro-3-pyridinyl)-5′,6′-dihydrospiro[chromeno[2,3-c]pyridine-5,4′-[1,3]thiazin]-7-yl)-5-methoxy-2-pyridinecarboxamide]
3.79 | 9.40 | 8.66 | COc1ccc(C(=O)Nc2ccc3c(c2)[C@@]2(CCSC(N)=N2)c2cc(-c4ccnc(F)c4)nc(F)c2O3)nc1 [Example 115, N-((5S)-2′-amino-1-fluoro-3-(2-fluoro-4-pyridinyl)-5′,6′-dihydrospiro[chromeno[2,3-c]pyridine-5,4′-[1,3]thiazin]-7-yl)-5-methoxy-2-pyridinecarboxamide]
3.51 | 8.59 | 9.22 | NC1=N[C@@]2(CCS1)c1cc(NC(=O)c3ncc(Cl)cc3F)ccc1Oc1c2cc(C2=CCOCC2)nc1F [Example 119, N-((5S)-2′-amino-3-(3,6-dihydro-2H-pyran-4-yl)-1-fluoro-5′,6′-dihydrospiro[chromeno[2,3-c]pyridine-5,4′-[1,3]thiazin]-7-yl)-5-chloro-3-fluoro-2-pyridinecarboxamide]
4.05 | 8.85 | 9.30 | Cc1cc(Br)cnc1C(=O)Nc1ccc2c(c1)[C@@]1(CCSC(N)=N1)c1cc(C3=CCOCC3)nc(F)c1O2 [Example 120, N-((5S)-2′-amino-3-(3,6-dihydro-2H-pyran-4-yl)-1-fluoro-5′,6′-dihydrospiro[chromeno[2,3-c]pyridine-5,4′-[1,3]thiazin]-7-yl)-5-bromo-3-methyl-2-pyridinecarboxamide]
